Results: patent US20150125506A1, “RETINAL PIGMENT EPITHELIAL CELLS DIFFERENTIATED FROM EMBRYONIC STEM CELLS WITH NICOTINAMIDE AND ACTIVIN A” (HADASIT MEDICAL RESEARCH SERVICES AND DEVELOPMENT LTD., priority 2007, published 2015)

Assays:
Assay type in all cases: cell-based, human
hESC clusters [1] = test: Indirect immunofluorescent staining of differentiated cells within clusters
Description: To characterize the immunophenotype of cells within the aggregates, the clusters cultivated for 2, 4, 6 or 8 weeks were gently dissociated either with 0.04% trypsin/0.04% EDTA or with Papain Dissociation System (Worthington Biochemical, Lakewood, N.J.), and the resulting small clumps and single cells were plated in KO medium supplemented with NA on poly-D-lysine (30-70 kDa, 10-20 μg/ml) alone or supplemented with either laminin (4 μg/ml) or fibronectin (10-20 μg/ml; all from Sigma, St. Louis, http://www.sigmaaldrich.com). The cells were fixed with 4% paraformaldehyde after 2 hours and examined for the expression of nestin (1:200), polysialic acid NCAM (PSA-NCAM) (1:100), Musashi (1:200; all from Chemicon, Temecula, from CA), Pax6 (DSHB, 1:100 or Chemicon, 1:250), Otx2 (Chemicon, 1:200), MiTF (Lab Vision Corporation, Fremont, Calif.; mouse IgG1, 1:50).

hESC-derived clusters = test: Flow cytometry of PSA-NCAM and TRA-1-60 positive cells in hESC-derived clusters
Description: Flow cytometric analysis was performed to determine the number of PSA-NCAM and TRA-1-60 positive cells at different time points within the hESC-derived clusters differentiating with or without nicotinamide supplementation. The clusters were dissociated with 0.04% Trypsin/0.04% EDTA. The single cells were then stained with anti-PSA-NCAM or anti-Tra-1-60 antibodies (both from Chemicon; 1:100), detected with goat anti-mouse immunoglobulins conjugated to FITC (Dako; 1:100), and counterstained with the cell viability dye Propidium iodide (0.005 mg/ml; Sigma) Control cells were incubated only with a secondary antibody. The cell-associated immunoreactivity was analyzed with FACScalibur (Becton Dickinson Immunocytometry Systems), using CellQuest software.

hESCs = test: Differentiation of hESC free-floating clusters into pigmented (RPE) cells, counted as pigmented clusters and cells; details: for percentage of clusters that included pigmented cells / percentage of pigmented cells from the total number of cells: NA with activin A vs NA without activin A; for appearance of clusters harboring pigmented cells: factor added in presence of NA
Description: Human ESC (HES1 cell line) and hESCs engineered by lentiviral vector to constitutively express eGFP [Gropp M, Itsykson P, Singer O, Ben-Hur T, Reinhartz E, Galun E, and Reubinoff B E. Stable genetic modification of human embryonic stem cells by lentiviral vectors. Molecular Therapy 7:281-7 (2003)] were cultured on human foreskin fibroblasts feeder layers in KO medium (KOM) consisting of 86% KO-DMEM (Gibco, Invitrogen, Gaithersburg, Md.), 14% KOSR (Gibco), 1 mM glutamine, 1% nonessential amino acids, 50 units/ml penicillin (Gibco), 50 μg/ml streptomycin, (Gibco) and 4 ng/ml bFGF (R&D Systems, Inc., Minneapolis, Minn.). hES cells were weekly passaged with type IV collagenase (1 mg/ml; Gibco) and plated onto a fresh feeder layer. A week before induction of differentiation, the cells were passaged by dissociation into nearly a single-cell suspension with Ca/Mg^++-free PBS supplemented with 0.05% EDTA (Biological Industries, Beit Haemek, Israel) and were re-plated on the feeders.
(§1) Six-eight days after plating the hES cells that were dissociated into single cells as above; they were removed from the feeders by treatment with type IV collagenase. The clumps were cultured for various periods up to 12 weeks in suspension within bacteriological dishes precoated with 0.1% low melting temperature agarose in KO medium (KOM) consisting of 86% KO-DMEM, 14% KOSR, 1 mM glutamine, 1% nonessential amino acids, 50 units/ml penicillin, and 50 μg/ml streptomycin, in the presence or absence of 10 mM nicotinamide (NA) (Sigma, St. Louis, Mo., USA). In some experiments the medium used was Neurobasal™ medium (Gibco) supplemented with N2 supplement (1:100) (Gibco) (NN medium), which was substituted after 1 week with DMEM/F12 (Gibco) supplemented with B27 (1:50) (Gibco).
(§2) Human ESCs were allowed to differentiate as free-floating clusters in KOM as above for up to six weeks in the presence of nicotinamide (NA) 10 mM. After the first week or 2 weeks of differentiation, cultures were supplemented with activin A 20-180 ng/ml (PeproTech Inc, Rocky Hill, N.J.), with TGFβ3 (1 ng/ml; R&D Systems Inc, Minneapolis, Minn.) with TGFβ1 (1 ng/ml-20 ng/ml; R&D Systems Inc) or with SB431542 (5 μM-50 μM, Sigma). Control cultures were supplemented with NA alone.
(§3) Human ESCs in suspension in KOM were also supplemented after one week with the bone morphogenetic protein (BMP) antagonist noggin (700 ng/ml R&D Systems Inc, Minneapolis, Minn.) in the presence and absence of NA, or during the 3rd and 4th weeks with TGFβ (20 ng/ml PeproTech Inc) in the presence of NA and allowed to differentiate up to an age of 6 weeks as free-floating clusters in suspension.

hESC clusters [2] = test: RT-PCR and Real-time PCR of marker transcripts in differentiating hESC clusters; details: for enhancement of MiTF-A expression by NA supplementation / increase of RPE65 expression with vs without NA: 12 weeks
Description: as §1, §2, §3
Total RNA was extracted from hESCs grown under serum-free conditions (1 week after passage), and at sequential time points up to 8 weeks during culturing of hESC-derived clusters in the presence or absence of 10 mM nicotinamide and with or without supplementation with TGFβ-superfamily growth factors or antagonists. The RNA was isolated using TRIzol reagent (Invitrogen, http://www.invitrogen.com) or TRI-Reagent (Sigma). cDNA synthesis was carried out using Moloney murine leukemia virus reverse transcriptase (M-MLV RT) and random primers, according to the manufacturer's instructions (Promega Corporation, Madison, Wis., http://www. promega.com). Polymerase chain reaction (PCR) was carried out using standard protocols with Taq DNA Polymerase (Gibco-BRL). Amplification conditions were as follows: denaturation at 94° C. for 15 seconds, annealing at 55° C. for 30 seconds, and extension at 72° C. for 45 seconds. The number of cycles varied between 18 and 40, depending on particular mRNA abundance. Primer human sequences for identifying human gene transcripts (forward and reverse 5′-3′) and the length of the amplified products were as follows (SEQ ID NOs. 1-12):
For Real-time PCR the levels of transcripts were monitored using TaqMan primers and probes that were derived from the commercially available TaqMan® Assays-on-Demand Gene Expression Products (Applied Biosystems, Foster City, Calif.): Oct4, ID Hs01895061; Musashi, ID Hs01045894; Pax6, ID Hs00240871; Six3, ID Hs00193667; Rx1, ID Hs00429459; Chx10, ID Hs01584048; MiTF-A, ID Hs01115553; MiTF-total, ID Hs01115557; Bestrophin, ID Hs00188249; RPE65, ID Hs00165642; Sox10, ID Hs00366918; Crx, ID Hs00230899. Quantitative PCR analysis was performed using an ABI Prism 7000HT and ABI Prism 7900HT Sequence Detection Systems and TaqMan® Universal PCR Master Mix (Applied Biosystems) according to the manufacturer's protocol. Housekeeping gene β-glucuronidase (GusB, assay ID Hs99999908) was selected as an internal reference for normalization in the Real-Time RT-PCR quantification analysis and the relative expression level of each gene is shown as a relative value when the expression level of day 0 (or untreated cells) was set at 1. Amplification reactions were carried out in duplicates or triplicates according to manufacturer's protocol (Applied Biosystems).

[3] = 8 weeks of differentiation in presence of NA
[4] = at 4 weeks, NA-treated clusters
[5] = 2 weeks old clusters, RT-PCR, with vs without NA
[6] = 6 weeks of differentiation, KOM, with vs without NA, Real-time RT-PCR
[7] = Q-PCR time course, 2 weeks activin A treatment with NA vs NA alone
[8] = TGFβ3 added in presence of NA, 6 weeks

NC(=O)c1cccnc1 [NA, nicotinamide]
percentage of cells expressing the early RPE marker MiTF (hESC clusters [1]; [3]): 5.4±1.1% | percentage of cells expressing Musashi (immunofluorescence) (hESC clusters [1]; [4]): 71.4% | percentage of cells expressing PSA-NCAM (immunofluorescence) (hESC clusters [1]; [4]): 74.2±4.1% | percentage of cells expressing nestin (immunofluorescence) (hESC clusters [1]; [4]): 55.9±10.1% | expression of TRA-1-60 (surface marker of undifferentiated cells) (hESC-derived clusters; FACS time course, NA treated vs untreated): declined more rapidly | percentage of cells expressing PSA-NCAM (FACS) (hESC-derived clusters; after 4 weeks of differentiation with NA): 81.4±6.3% | percentage of clusters that included pigmented cells (hESCs; 4 weeks): 17.7±3.2% | percentage of pigmented cells from the total number of cells (hESCs; 4 weeks): 2.4±1.2% | percentage of cells that were pigmented within clusters (hESCs; [3]): 5.7±1.0% | percentage of clusters that had pigmented areas (hESCs; after 8 weeks of differentiation, KO medium with NA 10 mM): 72.9±2.5% | expression of activin receptor ACTRIB (hESC clusters [2]; [5]): high | expression of activin receptor ACTRIIB (hESC clusters [2]; [5]): high | increase of MiTF-A expression in presence of NA (hESC clusters [2]; [6]): nearly two-fold | increase of RPE65 expression in presence of NA (hESC clusters [2]; [6]): ~30 fold | augmentation of RPE65 expression (hESC clusters [2]; 8-week time course, NA-treated vs spontaneously differentiating clusters): > 100 folds | enhancement of MiTF-A expression by NA supplementation (hESC clusters [2]; KOM): approximately 3 fold | increase of RPE65 expression with vs without NA (hESC clusters [2]; KOM): approximately doubled | expression of Chx10 (hESC clusters [2]; NA treatment vs no NA): increased | expression of Crx (photoreceptor progenitor marker) (hESC clusters [2]; NA treatment vs no NA): increased | expression of Rx1 transcripts (hESC clusters [2]; NA treatment vs no NA): increased | expression of Six3 transcripts (hESC clusters [2]; NA treatment vs no NA): increased | expression of Bestrophin transcripts (hESC clusters [2]; NA-treated cultures vs spontaneously differentiating hESC clusters): higher | enhancement of MiTF-A expression by NA supplementation (hESC clusters [2]; NN/DMEM medium): approximately 2.5 fold | increase of RPE65 expression with vs without NA (hESC clusters [2]; NN/DMEM medium): ~6 fold | expression of Pax6 transcripts (hESC clusters [2]; after 2-6 weeks of differentiation, with vs without NA): significantly increased | expression of Otx2 transcripts (hESC clusters [2]; after 2 weeks of differentiation, with vs without NA): significantly increased | expression of Musashi transcripts (hESC clusters [2]; after 4-6 weeks of differentiation, with vs without NA): significantly increased | expression of transcripts of the early RPE marker MiTF A (hESC clusters [2]; time course in presence of NA): induced after 4 weeks | expression of Oct4 (marker of undifferentiated hESCs) (hESC clusters [2]; time course, with vs without NA): declined more rapidly | expression of Sox10 (melanocyte developmental marker) (hESC clusters [2]; with vs without NA, M51 melanoma cell line as control): not dependent on NA supplementation

NC(=O)c1ccc(-c2nc(-c3ccc4c(c3)OCO4)c(-c3ccccn3)[nH]2)cc1 [SB431542]
appearance of pigmented clusters (hESCs; 4 weeks, added together with activin A and NA): significantly decreased

TGFβ1: transforming growth factor-β protein subtype, member of the TGFβ superfamily
appearance of clusters harboring pigmented cells (hESCs): significantly enhanced

activin A
percentage of clusters that included pigmented cells (hESCs; 4 weeks): 50.7±6.5% | percentage of pigmented cells from the total number of cells (hESCs; 4 weeks): 9.9±1.4% | concentration with optimal augmenting effect on percentage of pigmented cells and expression of Bestrophin and RPE65 (hESCs; activin A studied at various concentrations, in presence of NA): 140 ng/mL | pigmentation of clusters of pigmented cells (hESCs; developed in presence of activin A and NA vs NA alone): darker | increase of the percentage of pigmented cells in presence of activin A (hESCs; in presence of NA): 5-6 folds | expression of MiTF-A with activin A supplementation (hESC clusters [2]; 6 weeks, in presence of NA, vs NA alone): not affected | increase of RPE65 expression by activin A treatment (hESC clusters [2]; 6 weeks, in presence of NA, vs NA alone (FIG. 4D)): over five-fold | increase of Bestrophin expression by activin A treatment (hESC clusters [2]; 6 weeks, in presence of NA, vs NA alone (FIG. 4E)): over four-fold | expression of RPE marker Bestrophin (hESC clusters [2]; [7]): significantly increased | expression of retinal progenitor marker Chx10 (hESC clusters [2]; [7]): significantly increased | expression of retinal progenitor marker Rx1 (hESC clusters [2]; [7]): significantly increased | expression level of total MiTF-isoforms (hESC clusters [2]; at 4 weeks of differentiation, activin A with NA vs NA alone): increased | increase of bestrophin expression in presence of activin A (hESC clusters [2]; in presence of NA): about 10 folds

bFGF: basic FGF
appearance of clusters harboring pigmented cells (hESCs): abolished

B1: TGFβ3: transforming growth factor-β protein subtype, member of the TGFβ superfamily (protein, UniProt P10600 301-412, looked up)
Transforming growth factor …: ALDTNYCFRNLEENCCVRPLYIDFRQDLGWKWVHEPKGYYANFCSGPCPYLRSADTTHSTVLGLYNTLNPEASASPCCVPQDLEPLTILYYVGRTPKVEQLSNMVVKSCKCS
modifications: Transforming growth factor beta-3
notes: transforming growth factor-β protein subtype, member of the TGFβ superfamily
expression levels of RPE65 (hESC clusters [2]; [8]): but not of RPE65 | expression levels of transcripts of MiTF-A (hESC clusters [2]; [8]): significantly augmented

B2: noggin: bone morphogenetic protein (BMP) antagonist (protein, UniProt Q13253 28-232, looked up)
Noggin: QHYLHIRPAPSDNLPLVDLIEHPDPIFDPKEKDLNETLLRSLLGGHYDPGFMATSPPEDRPGGGGGAAGGAEDLAELDQLLRQRPSGAMPSEIKGLEFSEGLAQGKKQRLSKKLRRKLQMWLWSQTFCPVLYAWNDLGSRFWPRYVKVGSCFSKRSCSVPEGMVCKPSKSVHLTVLRWRCQRRGGQRCGWIPIQYPIISECKCSC
differentiation of hESC clusters into pigmented RPE cells (hESCs; noggin, absence of NA, 6 weeks): blocked | differentiation into pigmented cells (hESCs; noggin, medium also supplemented with NA, 6 weeks): blocked | expression of MiTF-A (hESC clusters [2]; noggin, both presence and absence of NA, Real-Time RT-PCR): significantly reduced
